Like-named read-outs stand apart in the source and are kept apart here. Where a SMILES comes first, the peptide text is derived from it. [ ]: non-standard residue; d: D form. The star is where a group is joined. Dolaproine = CO[C@@H]([C@@H]1CCCN1)[C@@H](C)C(=O)O; Dil = CC[C@H](C)[C@H](NC)[C@@H](CC(=O)O)OC; X1 = C[C@@H](N*)[C@@H](O)c1ccccc1; NMeV = CN[C@H](C(=O)O)C(C)C
Assays:
[1] = Stability of prodrugs in PBS at 37° C., LC-MS; format: physicochemical; settings: buffer
Protocol: Prodrugs were prepared to concentrations of 10 μM in PBS (pH 7.4, <2% DMF) and incubated at 37° C. to determine the relative stability under physiological conditions (FIG. 14). Aliquots of these solutions were removed after varying time intervals and analyzed via LC-MS on a Waters 3100 Mass Detector with an Xterra MS C18 Column to measure the amount of each prodrug remaining in solution. All measurements were made in triplicate and analyzed in Graphpad Prism to determine the half-lives (991, 257, and 2252 hours were determined for compounds 8, 9, and 10 respectively).

[2] = Drug payload stability after X-ray irradiation, LC/MS chromatograph analysis; format: physicochemical; settings: 8 Gy X-ray irradiation, 100 uM in PBS, degassed
Protocol: FIG. 5. Illustrates drug payload stability after X-ray irradiation. […] Both drug solutions were prepared to a concentration of 100 uM in PBS and analyzed before and after irradiation. MMAE chromatographs were obtained via ELSD and DOX chromatographs were obtained via UV absorbance scan (200-800 nm).
No difference in cleavage efficiency was found between gamma irradiation from a sealed 137Cs source (primarily 662 keV photons at a dose rate of roughly 0.5 Gy/min), and X-ray irradiation (from a 4000 W tube generating 320 keV photons at 3 Gy/min), and little background release was observed under un-irradiated conditions (FIG. 4).

[3] = tested on: Bone marrow-derived macrophages (BMDM) from IL12-eYFP reporter mice; experiment: Cellular immunostimulation of BMDM (p-NFkB and IL12-eYFP fluorescence); format: cell-based; settings: 100 nM, 48 hours
Protocol: Bone marrow-derived macrophages (BMDM) were generated from IL12-eYFP reporter mice by dissecting the femurs, flushing out the bone marrow, and culturing isolate with M-CSF supplemented growth media (Luthria G, et al. Nat Commun. 2020; 11:3521]. BMDM were plated in a 96 well plate at a concentration of 5,000 cells per well. These wells were then treated with either free gardiquimod, pATFB-SIL-Mal-Gard (13), or prodrug 13 that had been treated with 10 μM tris(2-carboxyethyl) phosphine) to chemically release the free gardiquimod (all drugs at a concentration of 100 nM). The cells were then incubated for 48 hours then fixed with 4% PFA and stained with Phospho-NF-κB p65 (Ser536) (93H1) Rabbit mAb and AF647 Goat anti-Rabbit IgG. Images were captured on a modified BX63 (Olympus) inverted microscopy system equipped with an environmental chamber and robotic stage, using excitation/emission wavelengths of 513/527 and 640/670 for eYFP and Cy5, respectively. The images were then quantified using ImageJ software (NIH, USA) to determine relative protein expression.

8505c cell line = experiment: Subcellular localization of DOX by intrinsic fluorescence imaging; format: cell-based, human; settings: ATC cells (8505c)
Protocol: Subcellular localization of DOX in the 8505c cell line was measured using a modified BX63 (Olympus) inverted microscopy system equipped with an environmental chamber and robotic stage. DOX images were collected using a 40× air objective (PLAPO 40×/0.95 numerical aperture), with excitation and emission wavelengths of 489 nm and 508 nm, respectively. All images were processed using cellSens Dimension 3.1.1 (Olympus, USA) and ImageJ 1.53k (NIH, USA) software. Nuclear to cytoplasm fluorescence ratios were calculated and plotted using Excel (Microsoft) and Prism (GraphPad). 20 μM concentration of free (or released) DOX was used, and unirradiated prodrug used the same total (caged and uncaged) DOX concentration as used in the irradiated sample. Following treatment for 72 hours, live cells were immediately imaged by confocal microscopy.

[4] = tested on: 8505c (human anaplastic thyroid cancer); experiment: Cytotoxicity assay, 72 hour incubation, PrestoBlue (resazurin-based); format: cell-based; settings: for IC50: Homo sapiens
Protocol: Experiments with cancer cells were performed to assess the degree to which the disclosed linker strategy shields biological activity of the drug payload under un-irradiated conditions, and restore drug activity once irradiated.
All cells were routinely evaluated for mycoplasma contamination and cultured following provider guidelines using 10% FBS (Bio-Techne Sales), 100 IU mL-1 penicillin, 100 μg mL-1 streptomycin (Invitrogen), with incubation at 37° C. and 5% CO2. Cytotoxicity experiments were performed by seeding 5,000 cells per well overnight in a 96-well plate (Corning) before the addition of each drug/conjugate. Empty wells with only media or vehicle-treated cells were used as controls. After addition of the corresponding drugs and a 72 hour incubation, the number of live cells was determined by PrestoBlue (ThermoFisher, USA) staining according to the provider's protocols.

[5] = 10 μM in PBS (pH 7.4, <2% DMF), 37° C., read-out: half-life (converted)

**Q.** For `CC[C@@H](C)[C@H]([C@H](CC(=O)N1CCC[C@@H]1[C@@H](OC)C(C)C(=O)N[C@@H](C)[C@H](O)c1ccccc1)OC)N(C)C(=O)[C@H](CC(=O)[C@H](C(C)C)N(C)C(=O)OC(C(=O)OC)c1ccc(NC(=O)OCc2c(F)c(F)c(N=[N+]=[N-])c(F)c2F)cc1)C(C)C` (some centres unmarked) [Compound 8], which half-life at 10 μM [1, 5] is on record?
**A.** The half-life at 10 μM was 41.3 days.

**Q.** With `COC(=O)C(OC(=O)N[C@H]1C[C@H](O[C@H]2C[C@](O)(C(=O)CO)Cc3c(O)c4c(c(O)c32)C(=O)c2c(OC)cccc2C4=O)O[C@@H](C)[C@H]1O)c1ccc(NC(=O)OCc2c(F)c(F)c(N=[N+]=[N-])c(F)c2F)cc1` (some centres unmarked) [Compound 9] as the compound, how does the half-life at 10 μM [1, 5] read?
**A.** The half-life at 10 μM was 10.7 days.

**Q.** Which “effect of irradiation on the drug payload itself” value [2] does the source give for `CC[C@H](C)[C@@H]([C@@H](CC(=O)N1CCC[C@H]1[C@H](OC)[C@@H](C)C(=O)N[C@H](C)[C@@H](O)c1ccccc1)OC)N(C)C(=O)[C@@H](NC(=O)[C@@H](NC)C(C)C)C(C)C` [MMAE, monomethyl auristatin E] (H-[NMeV]V[Dil][Dolaproine]-X1) here?
**A.** Its value is “Neither MMAE nor doxorubicin themselves were substantially affected”.

**Q.** Which half-life at 10 μM ([1]; pH 7.4) does the source give for `CCN(Cc1nc2c(N)nc3ccccc3c2n1CC(C)(C)O)C(=O)OC(C(=O)OC)c1ccc(NC(=O)OCc2c(F)c(F)c(N=[N+]=[N-])c(F)c2F)cc1` (centres unmarked) [Compound 10] here?
**A.** Its half-life at 10 μM is 93.8 days.

**Q.** What about the “immunostimulatory behavior compared to free gardiquimod, caged” value [3] of the same compound?
**A.** The value was “attenuated immunostimulatory behavior”.

**Q.** What about the “immunostimulatory activity after chemical uncaging” value ([3]; prodrug treated with 10 μM TCEP) of the same compound?
**A.** Its value is “restores the immunostimulatory activity”.

**Q.** What does the source list for `COc1cccc2c1C(=O)c1c(O)c3c(c(O)c1C2=O)C[C@@](O)(C(=O)CO)C[C@@H]3O[C@H]1C[C@H](N)[C@H](O)[C@H](C)O1` [doxorubicin]?
**A.** effect of irradiation on the drug payload itself [2]: Neither MMAE nor doxorubicin themselves were substantially affected; subcellular distribution of DOX fluorescence, free drug (8505c cell line): nuclear accumulation; IC50 ([4]; 8505c ATC cells, read-out: IC50 of parent drug): 94 nM

**Q.** For `COC(=O)C(OC(=O)N[C@@H]1C[C@@H](O[C@H]2C[C@](O)(C(=O)CO)Cc3c(O)c4c(c(O)c32)C(=O)c2c(OC)cccc2C4=O)O[C@H](C)[C@H]1O)c1ccc(NC(=O)OCc2cc(OC)cc(OC)c2)cc1` (some centres unmarked) [DMBA-SIL-DOX], which IC50 ([4]; 8505C, light or radiation study, read-out: concentration at which drug inhibited 50% of ATC cell growth) is on record?
**A.** Its IC50 is over 10000 nM.

**Q.** What about the “fold higher IC50 than that observed for the parent drug” value ([4]; un-irradiated, 8505c ATC cells) of the same compound?
**A.** The value was “roughly 100 fold”.
